# Laboratory results as given in ChEMBL document CHEMBL1151840, “Synthetic oligoribonucleotides containing arabinonucleotides act as agonists of TLR7 and 8” (Bioorg Med Chem Lett, 2009).
# Activity calls are given as the source filed them. The rule behind the calls is not given here.
# What was measured:
# Homo sapiens [1] = species: Homo sapiens; assay: Stimulation of immune response in human pDC assessed as induction of IFNalpha production at 150 ug/ml after 24 hrs; format: functional
# PBMC [2] = assay: Stimulation of immune response in human PBMC assessed as induction of TNFalpha production at 150 ug/ml after 24 hrs; format: functional, cell-based
# Homo sapiens [3] = species: Homo sapiens; assay: Stimulation of immune response in human pDC assessed as induction of TNFalpha production at 150 ug/ml after 24 hrs; format: functional
# [4] = biological target: T1, Toll-like receptor 7 (Homo sapiens) (UniProt Q9NYK1); assay: Agonist activity at human TLR7 expressed in HEK293XL cells assessed as NF-kappaB activation at 300 ug/ml after 18 hrs; format: functional, cell-based
# T1 sequence (whole entry): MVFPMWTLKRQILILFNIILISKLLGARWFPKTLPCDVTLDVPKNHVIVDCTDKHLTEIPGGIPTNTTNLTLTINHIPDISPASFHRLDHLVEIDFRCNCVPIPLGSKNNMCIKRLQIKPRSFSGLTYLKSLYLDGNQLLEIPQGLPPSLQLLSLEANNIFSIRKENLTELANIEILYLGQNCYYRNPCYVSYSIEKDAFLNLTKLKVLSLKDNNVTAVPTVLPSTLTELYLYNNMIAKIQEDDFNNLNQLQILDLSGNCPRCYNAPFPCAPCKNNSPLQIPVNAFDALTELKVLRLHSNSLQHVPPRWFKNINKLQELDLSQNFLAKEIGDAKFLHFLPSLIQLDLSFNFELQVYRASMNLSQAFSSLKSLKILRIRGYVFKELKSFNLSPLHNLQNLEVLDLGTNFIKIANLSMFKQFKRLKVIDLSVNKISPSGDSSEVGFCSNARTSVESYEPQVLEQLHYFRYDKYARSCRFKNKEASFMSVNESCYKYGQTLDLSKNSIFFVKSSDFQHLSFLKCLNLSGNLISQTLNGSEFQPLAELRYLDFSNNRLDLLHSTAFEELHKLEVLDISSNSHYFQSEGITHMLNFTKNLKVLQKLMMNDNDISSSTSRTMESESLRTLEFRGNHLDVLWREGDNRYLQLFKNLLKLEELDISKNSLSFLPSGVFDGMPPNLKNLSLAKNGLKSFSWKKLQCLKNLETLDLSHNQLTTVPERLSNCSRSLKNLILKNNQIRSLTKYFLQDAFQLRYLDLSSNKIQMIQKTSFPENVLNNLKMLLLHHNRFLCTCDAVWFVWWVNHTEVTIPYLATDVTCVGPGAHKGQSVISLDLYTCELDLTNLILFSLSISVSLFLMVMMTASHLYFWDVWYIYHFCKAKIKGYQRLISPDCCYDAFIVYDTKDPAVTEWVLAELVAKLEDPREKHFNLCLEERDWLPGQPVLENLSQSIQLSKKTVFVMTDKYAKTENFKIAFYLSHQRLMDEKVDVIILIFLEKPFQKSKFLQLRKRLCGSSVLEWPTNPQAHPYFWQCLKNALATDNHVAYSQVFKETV
# PBMC [5] = assay: Stimulation of immune response in human PBMC assessed as induction of MCP1 production at 150 ug/ml after 24 hrs; format: functional, cell-based
# PBMC [6] = assay: Stimulation of immune response in human PBMC assessed as induction of IFN-gamma production at 150 ug/ml after 24 hrs; format: functional, cell-based
# PBMC [7] = assay: Stimulation of immune response in human PBMC assessed as induction of IL8 production at 150 ug/ml after 24 hrs; format: functional, cell-based
# Homo sapiens [8] = species: Homo sapiens; assay: Stimulation of immune response in human pDC assessed as induction of IFN-gamma production at 150 ug/ml after 24 hrs; format: functional
# [9] = biological target: T2, Toll-like receptor 8 (Homo sapiens) (UniProt Q9NR97); assay: Agonist activity at human TLR8 expressed in HEK293XL cells assessed as NF-kappaB activation after 18 hrs; format: functional, cell-based
# T2 sequence (whole entry): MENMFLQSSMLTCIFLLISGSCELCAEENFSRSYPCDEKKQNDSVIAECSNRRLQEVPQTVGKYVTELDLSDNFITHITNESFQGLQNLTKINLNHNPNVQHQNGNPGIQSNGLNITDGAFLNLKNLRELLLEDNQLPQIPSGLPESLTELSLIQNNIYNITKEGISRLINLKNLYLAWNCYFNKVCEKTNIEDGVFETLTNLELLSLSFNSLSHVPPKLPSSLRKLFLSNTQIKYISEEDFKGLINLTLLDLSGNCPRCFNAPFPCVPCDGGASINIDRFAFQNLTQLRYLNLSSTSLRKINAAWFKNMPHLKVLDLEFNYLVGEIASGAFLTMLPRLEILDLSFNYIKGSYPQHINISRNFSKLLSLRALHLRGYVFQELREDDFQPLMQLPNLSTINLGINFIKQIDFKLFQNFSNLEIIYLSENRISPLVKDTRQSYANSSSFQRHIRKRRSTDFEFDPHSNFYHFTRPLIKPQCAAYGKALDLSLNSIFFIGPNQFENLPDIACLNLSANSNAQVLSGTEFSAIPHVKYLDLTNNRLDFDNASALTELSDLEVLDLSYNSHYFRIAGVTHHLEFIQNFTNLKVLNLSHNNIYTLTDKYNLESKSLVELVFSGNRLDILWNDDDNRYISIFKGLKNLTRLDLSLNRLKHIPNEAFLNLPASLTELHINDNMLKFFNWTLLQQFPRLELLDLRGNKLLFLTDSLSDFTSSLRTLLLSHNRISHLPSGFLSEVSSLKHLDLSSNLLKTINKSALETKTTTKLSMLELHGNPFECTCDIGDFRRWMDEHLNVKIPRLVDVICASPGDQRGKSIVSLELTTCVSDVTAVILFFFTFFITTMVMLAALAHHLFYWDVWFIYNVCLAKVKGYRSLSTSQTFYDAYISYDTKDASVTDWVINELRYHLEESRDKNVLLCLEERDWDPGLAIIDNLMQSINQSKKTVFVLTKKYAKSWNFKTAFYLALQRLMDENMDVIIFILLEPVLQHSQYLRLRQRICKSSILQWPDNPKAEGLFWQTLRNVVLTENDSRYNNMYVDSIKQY
# Mus musculus = assay: Stimulation of immune response in C57BL/6 mouse assessed as induction of serum IL12 production at 50 mg/kg, sc after 2 hrs by luminex multiplex assay; format: functional, organism-based; design: dose 50 mg/kg
# [10] = Stability in human serum assessed as full-length compound remaining after 10 mins by anion-exchange HPLC; format: ADME, cell-free; conditions: read-out: Stability
# PBMC [11] = assay: Stimulation of immune response in human PBMC assessed as induction of MIP1beta production at 150 ug/ml after 24 hrs; format: functional, cell-based
# PBMC [12] = assay: Stimulation of immune response in human PBMC assessed as induction of IL2R level at 150 ug/ml after 24 hrs; format: functional, cell-based
# PBMC [13] = assay: Stimulation of immune response in human PBMC assessed as induction of IFNalpha production at 150 ug/ml after 24 hrs; format: functional, cell-based
# PBMC [14] = assay: Stimulation of immune response in human PBMC assessed as induction of IL12 production at 150 ug/ml after 24 hrs; format: functional, cell-based
# PBMC [15] = assay: Stimulation of immune response in human PBMC assessed as induction of IL10 production at 150 ug/ml after 24 hrs; format: functional, cell-based
# Homo sapiens [16] = species: Homo sapiens; assay: Stimulation of immune response in human pDC assessed as induction of IL12 production at 150 ug/ml after 24 hrs; format: functional
# Homo sapiens [17] = species: Homo sapiens; assay: Stimulation of immune response in human pDC assessed as induction of MIP1beta production at 150 ug/ml after 24 hrs; format: functional
# PBMC [18] = assay: Stimulation of immune response in human PBMC assessed as induction of IL1-beta production at 150 ug/ml after 24 hrs; format: functional, cell-based
# PBMC [19] = assay: Stimulation of immune response in human PBMC assessed as induction of RANTES production at 150 ug/ml after 24 hrs; format: functional, cell-based
# PBMC [20] = assay: Stimulation of immune response in human PBMC assessed as induction of MIP1alpha production at 150 ug/ml after 24 hrs; format: functional, cell-based
# Homo sapiens [21] = species: Homo sapiens; assay: Stimulation of immune response in human pDC assessed as induction of MIP1alpha production at 150 ug/ml after 24 hrs; format: functional
compound,measurement,setting,value
Nc1ccn([C@@H]2O[C@H](COP(=O)(S)O[C@H]3[C@@H](O)[C@H](n4ccc(=O)[nH]c4=O)O[C@@H]3COP(=O)(S)O[C@H]3[C@@H](O)[C@H](n4ccc(=O)[nH]c4=O)O[C@@H]3COP(=O)(S)O[C@H]3[C@H](O)[C@H](n4cnc5c(=O)[nH]c(N)nc54)O[C@@H]3COP(=O)(S)O[C@H]3[C@@H](O)[C@H](n4ccc(=O)[nH]c4=O)O[C@@H]3COP(=O)(S)O[C@H]3[C@H](O)[C@H](n4cnc5c(=O)[nH]c(N)nc54)O[C@@H]3COP(=O)(S)OCC(O)COP(=O)(S)O[C@H]3[C@H](O)[C@H](n4cnc5c(=O)[nH]c(N)nc54)O[C@@H]3COP(=O)(S)O[C@H]3[C@@H](O)[C@H](n4ccc(=O)[nH]c4=O)O[C@@H]3COP(=O)(S)O[C@H]3[C@H](O)[C@H](n4cnc5c(=O)[nH]c(N)nc54)O[C@@H]3COP(=O)(S)O[C@H]3[C@@H](O)[C@H](n4ccc(=O)[nH]c4=O)O[C@@H]3COP(=O)(S)O[C@H]3[C@@H](O)[C@H](n4ccc(=O)[nH]c4=O)O[C@@H]3COP(=O)(S)O[C@H]3[C@@H](O)[C@H](n4ccc(N)nc4=O)O[C@@H]3COP(=O)(S)O[C@H]3[C@H](O)[C@H](n4cnc5c(=O)[nH]c(N)nc54)O[C@@H]3COP(=O)(S)O[C@H]3[C@@H](O)[C@H](n4ccc(=O)[nH]c4=O)O[C@@H]3COP(=O)(S)O[C@H]3[C@@H](O)[C@H](n4ccc(N)nc4=O)O[C@@H]3COP(=O)(S)O[C@H]3[C@H](O)[C@H](n4cnc5c(=O)[nH]c(N)nc54)O[C@@H]3COP(=O)(S)O[C@H]3[C@@H](O)[C@H](n4ccc(=O)[nH]c4=O)O[C@@H]3CO)[C@@H](OP(=O)(S)OC[C@H]3O[C@@H](n4cnc5c(=O)[nH]c(N)nc54)[C@@H](O)[C@@H]3OP(=O)(S)OC[C@H]3O[C@@H](n4ccc(=O)[nH]c4=O)[C@H](O)[C@@H]3OP(=O)(S)OC[C@H]3O[C@@H](n4ccc(N)nc4=O)[C@H](O)[C@@H]3OP(=O)(S)OC[C@H]3O[C@@H](n4cnc5c(=O)[nH]c(N)nc54)[C@@H](O)[C@@H]3OP(=O)(S)OC[C@H]3O[C@@H](n4ccc(=O)[nH]c4=O)[C@H](O)[C@@H]3OP(=O)(O)S)[C@H]2O)c(=O)n1 (some centres not stated),Activity,Homo sapiens [1],inactive
same,Activity,PBMC [2],Active
same,Activity,Homo sapiens [3],Active
same,Activity,[4],inactive
same,Activity,PBMC [5],Active
same,Activity,PBMC [6],Active
same,Activity,PBMC [7],Active
same,Activity,Homo sapiens [8],Active
same,Activity,[9],Dose-dependent effect
same,Activity,Mus musculus,inactive
same,remaining at 10 min,[10],76%
same,Activity,PBMC [11],Active
same,Activity,PBMC [12],Active
same,Activity,PBMC [13],Active
same,Activity,PBMC [14],Active
same,Activity,PBMC [15],Active
same,Activity,Homo sapiens [16],Active
same,Activity,Homo sapiens [17],Active
same,Activity,PBMC [18],Active
same,Activity,PBMC [19],Active
same,Activity,PBMC [20],Active
same,Activity,Homo sapiens [21],Active
